Key:
[1] = target: human A2a receptor (Homo sapiens, UniProt P29274); assay: Adenosine antagonistic activity, radioligand binding with [3H]CGS 21680; conditions: [3H]CGS 21680, 20 nM
Experimental: (§1) Test 1: Adenosine Antagonistic Activity
(§2) The adenosine antagonistic activity [Ki(nM)] of the test compound was examined by radioligand binding techniques using 8-cyclopentyl-1,3-dipropylxanthine, [dipropyl-2,3^−3H(N)] ([3H]DPCPX, 4.5 nM) for human A1 receptor and [3H]CGS 21680 (20 nM) for human A2a receptor.

[2] = target: T1, human A1 receptor (Homo sapiens, UniProt P30542); assay: Adenosine antagonistic activity, radioligand binding with [3H]DPCPX; conditions: 4.5 nM
T1 sequence (P30542 1-326): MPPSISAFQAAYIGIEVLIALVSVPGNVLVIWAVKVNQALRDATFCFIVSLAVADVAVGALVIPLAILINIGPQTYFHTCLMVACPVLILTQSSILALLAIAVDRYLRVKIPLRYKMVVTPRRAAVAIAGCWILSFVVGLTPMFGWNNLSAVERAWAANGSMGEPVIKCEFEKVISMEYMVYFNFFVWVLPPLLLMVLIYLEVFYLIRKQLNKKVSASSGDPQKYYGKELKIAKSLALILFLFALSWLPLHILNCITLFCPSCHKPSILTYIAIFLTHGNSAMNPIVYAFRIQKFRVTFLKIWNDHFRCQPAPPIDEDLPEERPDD
Experimental: as §1, §2

[3] = test system: ddY mice; assay: Anticatalepsy activity in mouse (haloperidol-induced catalepsy); format: in vivo; conditions: 3.2 mg/kg orally, ddY mice (n=7); haloperidol 0.32 mg/kg i.p. 30 min after compound; measured 30 min after injection, bar test up to 30 sec
Experimental: Test 2: Anticatalepsy Activity in Mouse
The test compound (3.2 mg/kg) was administered orally with ddY mice(n=7). Then, haloperidol (0.32 mg/kg) was injected intraperitoneally 30 min. after the administration of the compound. Thirty minutes after the injection, the cataleptic responses of mice were measured. The forelimbs of each mouse were placed on a 3 cm high, 3 mm wide horizontal bar, and the duration of cataleptic posture was measured for up to 30 sec.

Chain of human A2a receptor (P29274 whole entry): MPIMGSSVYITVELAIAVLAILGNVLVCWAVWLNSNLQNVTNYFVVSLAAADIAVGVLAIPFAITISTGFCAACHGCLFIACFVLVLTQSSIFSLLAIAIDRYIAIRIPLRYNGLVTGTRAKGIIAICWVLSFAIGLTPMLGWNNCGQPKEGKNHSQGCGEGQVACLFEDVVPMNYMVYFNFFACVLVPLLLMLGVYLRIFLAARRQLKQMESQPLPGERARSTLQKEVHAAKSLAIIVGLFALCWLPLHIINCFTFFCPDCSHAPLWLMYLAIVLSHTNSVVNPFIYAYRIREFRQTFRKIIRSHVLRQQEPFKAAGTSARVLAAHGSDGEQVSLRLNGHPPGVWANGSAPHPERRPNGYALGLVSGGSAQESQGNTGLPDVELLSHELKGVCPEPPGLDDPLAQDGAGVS

| Ki [1] | Ki [2] | melting point | SMILES | Manifestation rate of catalepsy (number of mouse) [3] |
| --- | --- | --- | --- | --- |
| 1.46 nM | 0.27 nM | 129 to 132 °C | CCCCCC(=O)Nc1nc(-c2ccccc2)c(-c2ccc(=O)n(C(C)C)n2)s1 [Example 3, N-[5-(1-Isopropyl-6-oxo-1,6-dihydro-3-pyridazinyl)-4-phenyl-1,3-thiazol-2-yl]hexanamide] | 0/7 |
| 1.23 nM | 0.45 nM | 228 to 230 °C | CC(C)n1nc(-c2sc(NC(=O)c3ccccc3)nc2-c2ccc(F)cc2)ccc1=O [Example 78, N-[4-(4-Fluorophenyl)-5-(1-isopropyl-6-oxo-1,6-dihydro-3-pyridazinyl)-1,3-thiazol-2-yl]-benzamide] | 0/7 |
| 1.63 nM | 0.12 nM | 234 to 236 °C | CNc1nc(-c2ccccc2)c(-c2ccc(=O)n(C(C)C)n2)s1 [Example 15, 2-Isopropyl-6-[2-(methylamino)-4-phenyl-1,3-thiazol-5-yl]-3(2H)-pyridazinone] | 0/7 |
| 1.14 nM | 1.03 nM | 192 to 193 °C | CC(C)n1nc(-c2sc(C(=O)NCc3ccncc3)nc2-c2ccccc2)ccc1=O [Example 233, 5-(1-Isopropyl-6-oxo-1,6-dihydro-3-pyridazinyl)-4-phenyl-N-(4-pyridinylmethyl)-1,3-thiazole-2-carboxamide] | 0/7 |
| 1.22 nM | 0.61 nM | 187 to 188 °C | CC(C)n1nc(-c2sc(NC(=O)CNCc3ccncc3)nc2-c2ccccc2)ccc1=O [Example 100, N-[5-(1-isopropyl-6-oxo-1,6-dihydro-3-pyridazinyl)-4-phenyl-1,3-thiazol-2-yl]-2-[(4-pyridinylmethyl)amino]acetamide] | 0/7 |
| 3.08 nM | 0.38 nM | 242 to 243 °C | Cc1cccc(NC(=O)Nc2nc(-c3ccccc3)c(-c3ccc(=O)n(C(C)C)n3)s2)c1 [Example 10, N-[5-(1-Isopropyl-6-oxo-1,6-dihydro-3-pyridazinyl)-4-phenyl-1,3-thiazol-2-yl]-N′-(3-methylphenyl)urea] |  |
| 1.52 nM | 1.14 nM | 172 to 174 °C | CCNC(=O)c1nc(-c2ccccc2)c(-c2ccc(=O)n(C(C)C)n2)s1 [Example 214, N-ethyl-5-(1-isopropyl-6-oxo-1,6-dihydro-3-pyridazinyl)-4-phenyl-1,3-thiazole-2-carboxamide] | 0/7 |
| 1.22 nM | 0.28 nM | 188 to 190 °C | COc1ccc(CC(=O)Nc2nc(-c3ccccc3)c(-c3ccc(=O)n(C(C)C)n3)s2)cc1 [Example 9, N-[5-(1-Isopropyl-6-oxo-1,6-dihydro-3-pyridazinyl)-4-phenyl-1,3-thiazol-2-yl]-2-(4-methoxyphenyl)acetamide] | 0/7 |
